Here are results for 2 compounds from BindingDB's records for doi:10.1016/j.bmcl.2004.01.072 (Array Biopharma, 2004).

This assay can be described thus: Inhibition of MDC-stimulated chemotaxis in transfected murine cell line expressing human chemokine receptor 4.

pEC50: −log10 of the molar value.

The compound `Cc1c(Cl)cccc1CNC(=O)C[C@H]1S[C@H](c2ccc(Cl)cc2Cl)N(CC(=O)NCCCN2CCCCC2)C1=O` [2-[(2R,5R)-5-[(3-Chloro-2-methyl-benzylcarbamoyl)-methyl]-2-(2,4-dichloro-phenyl)-4-oxo-thiazolidin-3-yl]-N-(3-piperidin-1-yl-propyl)-acetamide] showed a negative logarithm of the EC50 (pEC50) of 5.70.

`C[C@@H](NC(=O)C[C@H]1S[C@H](c2ccc(Cl)cc2Cl)N(CC(=O)NCCCN2CCCCC2)C1=O)c1cccc2ccccc12` [2-{(2R,5R)-2-(2,4-Dichloro-phenyl)-5-[((R)-1-naphthalen-1-yl-ethylcarbamoyl)-methyl]-4-oxo-thiazolidin-3-yl}-N-(3-piperidin-1-yl-propyl)-acetamide] gave a negative-log EC50 (pEC50) of 6.22.
